# Assay results from BindingDB's records for doi:10.1016/0960-894X(96)00221-1 (1996).
# Test: Compound was evaluated for inhibition of tyrosinase enzyme.
row,IC50 [µM],Structure (SMILES)
1,2,CC(C)C[C@H](NC(=O)OCc1cc(=O)c(O)co1)C(=O)OCc1cc(=O)c(O)co1 [(S)-2-(5-Hydroxy-4-oxo-4H-pyran-2-ylmethoxycarbonylamino)-4-methyl-pentanoic acid 5-hydroxy-4-oxo-4H-pyran-2-ylmethyl ester]
2,15.3,CC[C@H](C)[C@H](NC(=O)OCc1cc(=O)c(O)co1)C(=O)O
3,16.7,CC(C)[C@H](NC(=O)OCc1cc(=O)c(O)co1)C(=O)O [(S)-2-(5-Hydroxy-4-oxo-4H-pyran-2-ylmethoxycarbonylamino)-3-methyl-butyric acid]
4,0.7,CC[C@H](C)[C@H](NC(=O)OCc1cc(=O)c(O)co1)C(=O)OCc1cc(=O)c(O)co1
5,23.2,C[C@H](NC(=O)OCc1cc(=O)c(O)co1)C(=O)O [(S)-2-(5-Hydroxy-4-oxo-4H-pyran-2-ylmethoxycarbonylamino)-propionic acid]

# Continued, molecule first:
row,Structure (SMILES),IC50 [µM]
1,C[C@H](NC(=O)OCc1cc(=O)c(O)co1)C(=O)OCc1cc(=O)c(O)co1 [(S)-2-(5-Hydroxy-4-oxo-4H-pyran-2-ylmethoxycarbonylamino)-propionic acid 5-hydroxy-4-oxo-4H-pyran-2-ylmethyl ester],3.03
2,O=C(N[C@@H](Cc1ccccc1)C(=O)OCc1cc(=O)c(O)co1)OCc1cc(=O)c(O)co1 [(S)-2-(5-Hydroxy-4-oxo-4H-pyran-2-ylmethoxycarbonylamino)-3-phenyl-propionic acid 5-hydroxy-4-oxo-4H-pyran-2-ylmethyl ester],0.06
3,CC(C)C[C@H](NC(=O)OCc1cc(=O)c(O)co1)C(=O)O [(S)-2-(5-Hydroxy-4-oxo-4H-pyran-2-ylmethoxycarbonylamino)-4-methyl-pentanoic acid],14.5
4,CC(C)[C@H](NC(=O)OCc1cc(=O)c(O)co1)C(=O)OCc1cc(=O)c(O)co1 [(S)-2-(5-Hydroxy-4-oxo-4H-pyran-2-ylmethoxycarbonylamino)-3-methyl-butyric acid 5-hydroxy-4-oxo-4H-pyran-2-ylmethyl ester],2.39
5,O=C(N[C@@H](Cc1ccccc1)C(=O)O)OCc1cc(=O)c(O)co1 [(S)-2-(5-Hydroxy-4-oxo-4H-pyran-2-ylmethoxycarbonylamino)-3-phenyl-propionic acid],8
